Legend:
BAX = BAX gene expression (RT-qPCR); type: in vivo, rat; details: AlCl3-induced AD rats
Protocol: (§1) The brain tissues of the rats were removed and rigorously washed in isotonic saline 24 h after they were euthanized following the last behavioral test. For histological investigation, four brains per group were preserved for the whole night in 10% neutral buffered formalin. The remaining six brains were split into two sections each. In order to create a 10% homogenate (w/v), the first component was instantaneously homogenized using an ice-cold solution that included 300 mM sucrose and 50 mM Tris-HCl (pH 7.4). The homogenate was centrifuged at 1800× g for 10 min at 4 °C for biochemical tests, and the supernatant was thereafter kept at −20 °C. The second portion was set aside for use in RT-PCR analysis at −80 °C [94].
(§2) See Supplementary Information.

DA = assay: Brain DA level (fluorometric); type: in vivo, rat; details: AlCl3-induced AD rats
Protocol: as §1
Brain monoamine levels were promptly assessed following the rats’ euthanasia to prevent changes in the substance’s concentration. Dopamine (DA), norepinephrine (NE), and serotonin (5-HT) fluorometric tests were conducted on brain tissue homogenate using the Ciarlone method. […] The concentrations were articulated as nanograms per gram of fresh tissue using the fluorescence of reference solutions [95].

Bcl-2 = Bcl-2 gene expression (RT-qPCR); type: in vivo, rat; details: AlCl3-induced AD rats
Protocol: as §1, §2

Wnt3a = assay: Brain Wnt3a level; type: in vivo, rat; details: AlCl3-induced AD rats
Protocol: as §1, §2

HO-1 = HO-1 mRNA expression (RT-qPCR); type: in vivo, rat; details: AlCl3-induced AD rats
Protocol: as §1, §2

TLR4 = TLR4 mRNA expression (RT-qPCR); type: in vivo, rat; set-up: reduction of TLR4 mRNA expression: concentration or dose not given beside the values; details: AlCl3-induced AD rats
Protocol: as §1, §2

[1] = tested on: AlCl3-induced AD rat model; assay: Morris water maze (MWM) test in AlCl3-induced AD rats; type: in vivo
Outline: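 Male Sprague Dawley rats, 300–320 g, trained in a 150 cm pool with opaque water (25 ± 2 °C) and a 10 cm platform 2 cm submerged. Four trials daily for three days, 60 s limit, 20 s on platform; escape latency recorded. Day-4 probe without platform, 60 s, time in target quadrant counted.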

GSK3β = GSK3β gene expression (RT-qPCR); type: in vivo, rat; details: gene expression; AlCl3-induced AD rats; mean ± SE, n = 6
Protocol: as §1, §2

Amyloid-β = assay: Brain amyloid-β level (ELISA); type: in vivo, rat; set-up: reduction of β-amyloid levels: concentration or dose not given beside the values; details: AlCl3-induced AD rats
Protocol: as §1, §2

β-catenin = assay: Brain β-catenin level; type: in vivo, rat; details: AlCl3-induced AD rats
Protocol: as §1, §2

AChE = type: in vivo; set-up: reduction in AChE levels: concentration or dose not given beside the values; details: AlCl3-induced AD rats
TNF-α = assay: Brain TNF-α level (ELISA); type: in vivo, rat; details: AlCl3-induced AD rats
Protocol: as §1, with “[94]. […]” for “[94].”

NLRP3 = NLRP3 mRNA expression (RT-qPCR); type: in vivo, rat; set-up: reduction of NLRP3 mRNA expression: concentration or dose not given beside the values; details: AlCl3-induced AD rats
Protocol: as §1, §2

BACE1 = assay: Brain BACE1 level (ELISA); type: in vivo, rat; details: AlCl3-induced AD rats; mean ± SE, n = 6
Protocol: as §1, with “[94]. […]” for “[94].”

SOD = assay: Brain SOD activity (colorimetric); type: in vivo, rat; details: brain tissue, AlCl3-induced AD rats; mean ± SE, n = 6
Protocol: as §1
The SOD enzyme activity was estimated using the Marklund et al. method, which is founded on the enzyme’s capacity to decrease the nitro blue tetrazolium dye at a wavelength of 540 nm. To evaluate the TAC, a colorimetric approach was employed to estimate the amount of hydrogen peroxide that remains after 3,5-dichloro-2-hydroxybenzene sulphonate is converted to a colored product at 660 nm.

IL-1β = assay: Brain IL-1β level (ELISA); type: in vivo, rat; set-up: reduction in IL-1β levels: concentration or dose not given beside the values; details: AlCl3-induced AD rats
Protocol: as §1, with “[94]. […]” for “[94].”

[2] = gene expression, mean ± SE, n = 6
[3] = mRNA expression level, mean ± SE, n = 6

In the case of `COc1ccc(N2CC(=O)Oc3sc4c(c3C2=O)CCCCC4)cc1` [Compound 16, 4-(4-Methoxyphenyl)-3,4,7,8,9,10-hexahydro-6H-cyclohepta[4,5]thieno[3,2-f][1,4]oxa-zepine-2,5-dione], the “suppression of BAX gene expression” value (BAX) is reported as 36.5%, the BAX (BAX; [2]) is reported as 6.14 ± 0.090 ^abc and the “elevation of DA levels” value (DA) is reported as 4.4 fold. For the same compound, the “DA (ng/g Tissue)” value (DA; brain tissue, mean ± SE, n = 6) was 52.96 ± 1.52 ^abc ng/g Tissue, the “upregulation of Bcl-2 gene expression” value (Bcl-2) was 5.2 fold and the Bcl-2 (Bcl-2; [2]) was 0.63 ± 0.020 ^abc. The “elevation of Wnt3a levels” value (Wnt3a) was 5.5 fold, the “Wnt3a (ng/g Tissue)” value (Wnt3a; mean ± SE, n = 6) was 0.52 ± 0.01 ^abc ng/g Tissue and the “elevation of HO-1 mRNA expression” value (HO-1) was 4.1 fold. The HO-1 (HO-1; mRNA expression in brain tissue, mean ± SE, n = 6) was 0.50 ± 0.020 ^abc, the “reduction of TLR4 mRNA expression” value (TLR4) was 53.9% and the TLR4 (TLR4; [3]) was 4.43 ± 0.08 ^abc. The “increase in quadrant residence time” value [1] was 3.6 times, the “Learning (s)” value ([1]; escape latency, mean ± SE, n = 6) was 26.83 ± 1.2 ^abc s and the “Memory (s)” value ([1]; time spent in target quadrant, mean ± SE, n = 6) was 36.00 ± 1.27 ^abc s. The GSK3β (GSK3β) was 2.18 ± 0.10 ^abc, the “reduction of β-amyloid levels” value (Amyloid-β) was 55.4% and the “Amyloid-β (ng/g Tissue)” value (Amyloid-β; brain, mean ± SE, n = 6) was 12.44 ± 0.14 ^abc ng/g Tissue. For the same compound, the “elevation of β-catenin levels” value (β-catenin) was 4.6 fold, the “β-Catenin (ng/L)” value (β-catenin; mean ± SE, n = 6) was 7.34 ± 0.12 ^abc ng/L and the “AChE (ng/g Tissue)” value (AChE; brain tissue, mean ± SE, n = 6) was 16.83 ± 0.29 ^abc ng/g Tissue. The “reduction in AChE levels” value (AChE; brain) was 75%, the “decline in TNF-α levels” value (TNF-α) was 51.6% and the “TNF-α (pg/g Tissue)” value (TNF-α; mean ± SE, n = 6) was 85.17 ± 0.46 ^abc pg/g Tissue. For the same compound, the “reduction of NLRP3 mRNA expression” value (NLRP3) was 59.5%, the NLRP3 (NLRP3; [3]) was 4.32 ± 0.10 ^abc and the “BACE1 (ng/mL)” value (BACE1) was 17.44 ± 0.23 ^abc ng/mL. The “SOD(U/g)” value (SOD) was 2.92 ± 0.20 ^abc U/g, the “reduction in IL-1β levels” value (IL-1β) was 55.2% and the “IL-β (pg/g Tissue)” value (IL-1β; mean ± SE, n = 6) was 53.04 ± 0.61 ^abc pg/g Tissue.

— PMC12389534, “Unlocking Therapeutic Potential of Novel Thieno-Oxazepine Hybrids as Multi-Target Inhibitors of AChE/BChE and Evaluation Against Alzheimer’s Disease: In Vivo, In Vitro, Histopathological, and Docking Studies” (Pharmaceuticals, 2025)
